Experimental data: US9211310B2, “Use of a Chinese medicine composition in preparing medicaments for treating secondary prevention of myocardial infarction” (TASLY PHARMACEUTICAL GROUP CO., LTD, priority 2010, dated 2015)

System: patients after acute myocardial infarction
Experiment: Life quality, Seattle Angina Questionnaire (SAQ), same clinical trial
Type: in vivo, human
Details: FAS
Excerpt: 3508 patients who were in accordance with the diagnostic standards of AMI for 28 days to 2 years and differentiated as Qi deficiency and blood stagnation syndrome by TCM were studied. 0.5 g Chinese medicine composition prepared by the method of EXAMPLE 1 (Coded as QSYQ) was administrated half an hour after meal, 3 times per day.
There were 19 questions in the Seattle angina questionnaire (SAQ), including 5 parts: physical limitation (PL), anginal stability (AS), anginal frequency (AF), treatment satisfaction (TS) and disease perception (DP). After being given necessary explanation by doctors, the questions were answered independently by patients.
They included the overall survival time, angina pectoris score, TCM symptom score and life quality score, where angina pectoris score, TCM symptom score and life quality score were evaluated at randomization, in 1st, 3rd, 6th, 9th, 12th month after treatment and 18th month after follow-up.
All evaluation results of SAQ were described during the period of observation, and Wilcoxon rank sum test was used for inter-group comparison.
The evaluation results in the SAQ were depicted in different observations, and inter-group comparison was tested by Wilcoxon Rank-sum test.

SMILES: CC(=O)Oc1ccccc1C(=O)O [Control group, aspirine]
- 10th question: Mostly satisfied, patients (%) (Baseline): (16.89%)
- 10th question: Partly satisfied, patients (%) (Baseline): (31.19%)
- 11th question: Continuously worried, patients (%) (Baseline): (9.59%)
- 11th question: No worried, patients (%) (Baseline): (4.13%)
- 11th question: Occasionally worried, patients (%) (Baseline): (40.93%)
- 11th question: Often worried, patients (%) (Baseline): (23.88%)
- 11th question: Seldom worried, patients (%) (Baseline): (21.47%)
- SAQ 4th question, 1-2 times per week: % of patients (Baseline): (19.80%)
- SAQ 4th question, 1-2 times per week: number of patients (Baseline): 344
- SAQ 4th question, 1-3 times per day: % of patients (Baseline): (8.64%)
- SAQ 4th question, 1-3 times per day: number of patients (Baseline): 150
- SAQ 4th question, <1 time per week: % of patients (Baseline): (10.13%)
- SAQ 4th question, <1 time per week: number of patients (Baseline): 176
- SAQ 4th question, Not used: % of patients (Baseline): (43.64%)
- SAQ 4th question, Not used: number of patients (Baseline): 758
- SAQ 4th question, ≧3 times per week: % of patients (Baseline): (16.87%)
- SAQ 4th question, ≧3 times per week: number of patients (Baseline): 293
- SAQ 4th question, ≧4 times per day: % of patients (Baseline): (0.92%)
- SAQ 4th question, ≧4 times per day: number of patients (Baseline): 16
- SAQ 5th question, Few: % of patients (Baseline): (18.88%)
- SAQ 5th question, Few: number of patients (Baseline): 328
- SAQ 5th question, Mild: % of patients (Baseline): (30.74%)
- SAQ 5th question, Mild: number of patients (Baseline): 534
- SAQ 5th question, Moderate: % of patients (Baseline): (20.50%)
- SAQ 5th question, Moderate: number of patients (Baseline): 356
- SAQ 5th question, None: % of patients (Baseline): (23.43%)
- SAQ 5th question, None: number of patients (Baseline): 407
- SAQ 5th question, Not medicated by doctors: % of patients (Baseline): (2.99%)
- SAQ 5th question, Not medicated by doctors: number of patients (Baseline): 52
- SAQ 5th question, Severe: % of patients (Baseline): (3.45%)
- SAQ 5th question, Severe: number of patients (Baseline): 60
- SAQ 6th question, Dissatisfied: % of patients (Baseline): (1.15%)
- SAQ 6th question, Dissatisfied: number of patients (Baseline): 20
- SAQ 6th question, Highly satisfied: % of patients (Baseline): (15.33%)
- SAQ 6th question, Highly satisfied: number of patients (Baseline): 267
- SAQ 6th question, Mostly dissatisfied: % of patients (Baseline): (6.54%)
- SAQ 6th question, Mostly dissatisfied: number of patients (Baseline): 114
- SAQ 6th question, Mostly satisfied: % of patients (Baseline): (45.52%)
- SAQ 6th question, Mostly satisfied: number of patients (Baseline): 793
- SAQ 6th question, Partly satisfied: % of patients (Baseline): (31.46%)
- SAQ 6th question, Partly satisfied: number of patients (Baseline): 548
- SAQ 7th question, Dissatisfied: % of patients (Baseline): (0.40%)
- SAQ 7th question, Dissatisfied: number of patients (Baseline): 7
- SAQ 7th question, Highly satisfied: % of patients (Baseline): (20.40%)
- SAQ 7th question, Highly satisfied: number of patients (Baseline): 355
- SAQ 7th question, Mostly dissatisfied: % of patients (Baseline): (4.60%)
- SAQ 7th question, Mostly dissatisfied: number of patients (Baseline): 80
- SAQ 7th question, Mostly satisfied: % of patients (Baseline): (47.99%)
- SAQ 7th question, Mostly satisfied: number of patients (Baseline): 835
- SAQ 7th question, Partly satisfied: % of patients (Baseline): (26.61%)
- SAQ 7th question, Partly satisfied: number of patients (Baseline): 463
- SAQ Question 1-1 Mildly limited, number of patients (Baseline): 34
- SAQ Question 1-1 Mildly limited, percent of patients (Baseline): (1.95%)
- SAQ Question 1-1 Moderately limited, number of patients (Baseline): 16
- SAQ Question 1-1 Moderately limited, percent of patients (Baseline): (0.92%)
- SAQ Question 1-1 Not limited, number of patients (Baseline): 1582
- SAQ Question 1-1 Not limited, percent of patients (Baseline): (90.92%)
- SAQ Question 1-1 Other reasons, number of patients (Baseline): 5
- SAQ Question 1-1 Other reasons, percent of patients (Baseline): (0.29%)
- SAQ Question 1-1 Severely limited, number of patients (Baseline): 1
- SAQ Question 1-1 Severely limited, percent of patients (Baseline): (0.06%)
- SAQ Question 1-1 Slightly limited, number of patients (Baseline): 102
- SAQ Question 1-1 Slightly limited, percent of patients (Baseline): (5.86%)
- SAQ Question 1-2 Mildly limited, number of patients (Baseline): 46
- SAQ Question 1-2 Mildly limited, percent of patients (Baseline): (2.64%)
- SAQ Question 1-2 Moderately limited, number of patients (Baseline): 18
- SAQ Question 1-2 Moderately limited, percent of patients (Baseline): (1.03%)
- SAQ Question 1-2 Not limited, number of patients (Baseline): 1539
- SAQ Question 1-2 Not limited, percent of patients (Baseline): (88.45%)
- SAQ Question 1-2 Other reasons, number of patients (Baseline): 6
- SAQ Question 1-2 Other reasons, percent of patients (Baseline): (0.34%)
- SAQ Question 1-2 Severely limited, number of patients (Baseline): 2
- SAQ Question 1-2 Severely limited, percent of patients (Baseline): (0.11%)
- SAQ Question 1-2 Slightly limited, number of patients (Baseline): 129
- SAQ Question 1-2 Slightly limited, percent of patients (Baseline): (7.41%)
- SAQ Question 1-6: Mildly limited, patients (%) (Baseline): (20.89%)
- SAQ Question 1-6: Moderately limited, patients (%) (Baseline): (17.95%)
- SAQ Question 1-6: Not limited, patients (%) (Baseline): (25.85%)
- SAQ Question 1-6: Other reasons, patients (%) (Baseline): (0.92%)
- SAQ Question 1-6: Severely limited, patients (%) (Baseline): (6.75%)
- SAQ Question 1-6: Slightly limited, patients (%) (Baseline): (27.64%)
- SAQ Question 1-7: Mildly limited, patients (%) (Baseline): (24.74%)
- SAQ Question 1-7: Moderately limited, patients (%) (Baseline): (19.42%)
- SAQ Question 1-7: Not limited, patients (%) (Baseline): (10.64%)
- SAQ Question 1-7: Other reasons, patients (%) (Baseline): (2.81%)
- SAQ Question 1-7: Severely limited, patients (%) (Baseline): (20.94%)
- SAQ Question 1-7: Slightly limited, patients (%) (Baseline): (21.46%)
- SAQ Question 1-8: Mildly limited, patients (%) (Baseline): (23.63%)
- SAQ Question 1-8: Moderately limited, patients (%) (Baseline): (22.57%)
- SAQ Question 1-8: Not limited, patients (%) (Baseline): (8.07%)
- SAQ Question 1-8: Other reasons, patients (%) (Baseline): (2.40%)
- SAQ Question 1-8: Severely limited, patients (%) (Baseline): (25.96%)
- SAQ Question 1-8: Slightly limited, patients (%) (Baseline): (17.37%)
- 8th question: Dissatisfied, patients (%) (Follow-up): (0.07%)
- 8th question: Highly satisfied, patients (%) (Follow-up): (28.03%)
- 8th question: Mostly dissatisfied, patients (%) (Follow-up): (0.62%)
- 8th question: Mostly satisfied, patients (%) (Follow-up): (60.61%)
- 8th question: Partly satisfied, patients (%) (Follow-up): (10.67%)
- 9th question: Few, patients (%) (Follow-up): (44.26%)
- 9th question: Mild, patients (%) (Follow-up): (27.29%)
- 9th question: Moderate, patients (%) (Follow-up): (3.78%)
- 9th question: Severe, patients (%) (Follow-up): (0.14%)
- 9th question: Uneffective, patients (%) (Follow-up): (24.54%)
- 10th question: Dissatisfied, patients (%) (Follow-up): (18.50%)
- 10th question: Highly satisfied, patients (%) (Follow-up): (9.56%)
- 10th question: Mostly dissatisfied, patients (%) (Follow-up): (19.05%)
- 10th question: Mostly satisfied, patients (%) (Follow-up): (32.12%)
- 10th question: Partly satisfied, patients (%) (Follow-up): (20.77%)
- 11th question: Continuously worried, patients (%) (Follow-up): (1.38%)
- 11th question: No worried, patients (%) (Follow-up): (8.80%)
- 11th question: Occasionally worried, patients (%) (Follow-up): (38.93%)
- 11th question: Often worried, patients (%) (Follow-up): (6.74%)
- 11th question: Seldom worried, patients (%) (Follow-up): (44.15%)
- SAQ 4th question, 1-2 times per week: % of patients (Follow-up): (13.28%)
- SAQ 4th question, 1-2 times per week: number of patients (Follow-up): 192
- SAQ 4th question, 1-3 times per week: % of patients (Follow-up): (2.84%)
- SAQ 4th question, 1-3 times per week: number of patients (Follow-up): 41
- SAQ 4th question, <1 time per week: % of patients (Follow-up): (16.04%)
- SAQ 4th question, <1 time per week: number of patients (Follow-up): 232
- SAQ 4th question, Not used: % of patients (Follow-up): (66.04%)
- SAQ 4th question, Not used: number of patients (Follow-up): 955
- SAQ 4th question, ≧3 times per week: % of patients (Follow-up): (1.80%)
- SAQ 4th question, ≧3 times per week: number of patients (Follow-up): 26
- SAQ 4th question, ≧4 times per day: % of patients (Follow-up): (0.00%)
- SAQ 4th question, ≧4 times per day: number of patients (Follow-up): 0
- SAQ 5th question, 1-2 times per week: % of patients (Follow-up): (32.97%)
- SAQ 5th question, 1-2 times per week: number of patients (Follow-up): 478
- SAQ 5th question, 1-3 times per day: % of patients (Follow-up): (3.17%)
- SAQ 5th question, 1-3 times per day: number of patients (Follow-up): 46
- SAQ 5th question, <1 time per week: % of patients (Follow-up): (31.17%)
- SAQ 5th question, <1 time per week: number of patients (Follow-up): 452
- SAQ 5th question, No onset: % of patients (Follow-up): (7.52%)
- SAQ 5th question, No onset: number of patients (Follow-up): 109
- SAQ 5th question, ≧3 times per week: % of patients (Follow-up): (25.03%)
- SAQ 5th question, ≧3 times per week: number of patients (Follow-up): 363
- SAQ 5th question, ≧4 times per day: % of patients (Follow-up): (0.14%)
- SAQ 5th question, ≧4 times per day: number of patients (Follow-up): 2
- SAQ 6th question, Dissatisfied: % of patients (Follow-up): (0.00%)
- SAQ 6th question, Dissatisfied: number of patients (Follow-up): 0
- SAQ 6th question, Highly satisfied: % of patients (Follow-up): (28.18%)
- SAQ 6th question, Highly satisfied: number of patients (Follow-up): 410
- SAQ 6th question, Mostly dissatisfied: % of patients (Follow-up): (0.62%)
- SAQ 6th question, Mostly dissatisfied: number of patients (Follow-up): 9
- SAQ 6th question, Mostly satisfied: % of patients (Follow-up): (62.75%)
- SAQ 6th question, Mostly satisfied: number of patients (Follow-up): 913
- SAQ 6th question, Partly satisfied: % of patients (Follow-up): (8.45%)
- SAQ 6th question, Partly satisfied: number of patients (Follow-up): 123
- SAQ 7th question, Dissatisfied: % of patients (Follow-up): (0.00%)
- SAQ 7th question, Dissatisfied: number of patients (Follow-up): 0
- SAQ 7th question, Highly satisfied: % of patients (Follow-up): (30.56%)
- SAQ 7th question, Highly satisfied: number of patients (Follow-up): 444
- SAQ 7th question, Mostly dissatisfied: % of patients (Follow-up): (0.28%)
- SAQ 7th question, Mostly dissatisfied: number of patients (Follow-up): 4
- SAQ 7th question, Mostly satisfied: % of patients (Follow-up): (62.49%)
